Data from patent US3994981A, “Derivatives of certain geranyl phenyl ethers” (Stauffer Chemical Company, priority 1973, dated 1976).

Tested on: yellow mealworm, Tenebrio molitor, L.
Experiment: Insecticidal evaluation test: hindering metamorphosis of insects (Tenebrio molitor pupae, topical application)
Assay type: in vivo
Details: applied in acetone to the venter of pupae 1-25 hours old; 28° C., 40% humidity; graded at adult emergence (6-8 days); average of 2 groups of 20 pupae
Protocol: The degree of activity of a candidate compound to hinder or impede the metamorphosis of insects is measured by treating the penultimate larval stage of a representative insect with the compound and examining it after its last molt toward the adult form for retention of immature features.
Specifically, yellow mealworm, Tenebrio molitor, L., larvae are maintained at 28° C. and 40% humidity on a diet of bran flakes. Prepupae care collected from the culture and kept in separate containers. The pupae collected once daily, are 1-25 hours old at the time of treatment. By means of a syringe, suitable amounts of candidate compounds in […] of acetone are applied to the ventor of Tenebrio molitor, L. pupae. Treated pupae are maintained at 28° C. and 40% humidity until the adults emerged (usually within 6-8 days). Emerged adults are graded as positive, negative, or dead. To be considered a positive response, the presence of typical pupal cuticle, urogomphi, gin trap, and abnormal wings, etc., are required. For each test, 2 groups of 20 pupae were used and the averaged results were reported.
The dose of a candidate compound per pupa that is needed to kill or give a positive response in the above insecticidal evaluation test for 10 of the 20 pupae is determined.

C=C(C)C(Cl)CCC(C)=CCOc1ccc(SC)cc1 (stereo not shown) [Compound 1]
ED50: dose per pupa needed to kill or give a positive response for 10 of the 20 pupae: 0.3 μg/pupa

C=C(C)C(Cl)CCC(C)=CCOc1ccc(CC)cc1 (stereo not shown) [Compound 2, 1-(4'-ethyl) phenoxy-3,7-dimethyl-6-chloro-2,7-octadiene]
ED50: dose per pupa needed to kill or give a positive response for 10 of the 20 pupae: 0.1 μg/pupa

C=C(C)C(Br)CCC(C)=CCOc1ccc(CC)cc1 (stereo not shown) [Compound 3, 1-(4'-ethyl) phenoxy-3,7-dimethyl-6-bromo-2,7-octadiene]
ED50: dose per pupa needed to kill or give a positive response for 10 of the 20 pupae: 0.5 μg/pupa

C=C(C)C(Cl)CCC1(C)OC1COc1ccc(CC)cc1 (stereo not shown) [Compound 24, 3,7-dimethyl-6-chloro-1-p-ethylphenoxy-2,3-epoxy-7-octene]
ED50: dose per pupa needed to kill or give a positive response for 10 of the 20 pupae: 0.03 μg/pupa
